Consider 21 molecules from US20230113037A1 (Bayer Aktiengesellschaft, priority 2019, published 2023).

By IC50 is commonly meant the concentration needed to halve the response being measured. A low value points to inhibition by little substance. The term pIC50 denotes −log10 of the IC50, conventionally taken in molar units.

pIC50: −log10 of the molar value. Like-named read-outs stand apart in the source and are kept apart here.

In experiment [1] the target is T1, AHR (Homo sapiens, UniProt P35869).
T1 construct: U87 MG glioblastoma cells (ATCC #HTB-14) endogenously expressing AHR; endogenous in cells; host or cells: U87 MG glioblastoma cells (ATCC #HTB-14)
T1 sequence (P35869 11-848): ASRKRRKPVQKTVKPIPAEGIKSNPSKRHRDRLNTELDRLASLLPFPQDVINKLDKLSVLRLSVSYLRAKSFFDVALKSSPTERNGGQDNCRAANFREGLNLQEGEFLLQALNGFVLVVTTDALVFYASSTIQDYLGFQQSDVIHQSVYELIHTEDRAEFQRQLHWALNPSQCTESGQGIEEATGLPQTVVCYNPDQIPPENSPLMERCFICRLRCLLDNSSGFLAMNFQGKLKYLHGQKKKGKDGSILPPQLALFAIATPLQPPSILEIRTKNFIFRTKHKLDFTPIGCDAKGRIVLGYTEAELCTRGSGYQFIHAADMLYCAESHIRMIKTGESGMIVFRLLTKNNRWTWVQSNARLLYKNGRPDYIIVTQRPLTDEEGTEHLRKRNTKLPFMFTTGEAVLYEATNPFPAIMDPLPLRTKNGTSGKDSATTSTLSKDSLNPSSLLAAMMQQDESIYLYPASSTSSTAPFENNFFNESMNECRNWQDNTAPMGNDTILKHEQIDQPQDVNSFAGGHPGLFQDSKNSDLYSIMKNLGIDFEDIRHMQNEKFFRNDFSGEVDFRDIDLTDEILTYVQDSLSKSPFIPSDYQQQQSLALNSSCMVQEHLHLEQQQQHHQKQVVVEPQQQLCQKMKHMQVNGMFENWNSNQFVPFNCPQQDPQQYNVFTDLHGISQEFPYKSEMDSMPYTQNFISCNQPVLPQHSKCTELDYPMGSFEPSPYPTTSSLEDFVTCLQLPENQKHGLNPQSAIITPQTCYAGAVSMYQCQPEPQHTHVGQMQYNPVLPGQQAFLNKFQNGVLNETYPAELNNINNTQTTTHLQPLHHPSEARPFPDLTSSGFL
In words: In vitro assay 1: antagonism in human cell line (AHR transactivation, firefly luciferase reporter, kynurenic acid prestimulated). In kind it is cell-based. The conditions noted are these: AHR Antagonism Human IC50 [M]. The method, boiled down: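 U87 MG glioblastoma cells with endogenous AHR, stably carrying a DRE-driven firefly luciferase reporter and constitutive Renilla reporter, prestimulated with kynurenic acid before compound addition. Firefly and Renilla read by dual luciferase; Renilla flags toxicity; normalized to controls (150 μM kynurenic acid + 5 μM staurosporine as full inhibition); repeat values averaged or median.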
(In general: In a reporter assay the amount or activity of a reporter protein is the signal.)

Experiment [2] has as its target T2, AHR (Mus musculus, UniProt P30561).
T2 sequence (P30561 1-848 P471L/N533S/M589L): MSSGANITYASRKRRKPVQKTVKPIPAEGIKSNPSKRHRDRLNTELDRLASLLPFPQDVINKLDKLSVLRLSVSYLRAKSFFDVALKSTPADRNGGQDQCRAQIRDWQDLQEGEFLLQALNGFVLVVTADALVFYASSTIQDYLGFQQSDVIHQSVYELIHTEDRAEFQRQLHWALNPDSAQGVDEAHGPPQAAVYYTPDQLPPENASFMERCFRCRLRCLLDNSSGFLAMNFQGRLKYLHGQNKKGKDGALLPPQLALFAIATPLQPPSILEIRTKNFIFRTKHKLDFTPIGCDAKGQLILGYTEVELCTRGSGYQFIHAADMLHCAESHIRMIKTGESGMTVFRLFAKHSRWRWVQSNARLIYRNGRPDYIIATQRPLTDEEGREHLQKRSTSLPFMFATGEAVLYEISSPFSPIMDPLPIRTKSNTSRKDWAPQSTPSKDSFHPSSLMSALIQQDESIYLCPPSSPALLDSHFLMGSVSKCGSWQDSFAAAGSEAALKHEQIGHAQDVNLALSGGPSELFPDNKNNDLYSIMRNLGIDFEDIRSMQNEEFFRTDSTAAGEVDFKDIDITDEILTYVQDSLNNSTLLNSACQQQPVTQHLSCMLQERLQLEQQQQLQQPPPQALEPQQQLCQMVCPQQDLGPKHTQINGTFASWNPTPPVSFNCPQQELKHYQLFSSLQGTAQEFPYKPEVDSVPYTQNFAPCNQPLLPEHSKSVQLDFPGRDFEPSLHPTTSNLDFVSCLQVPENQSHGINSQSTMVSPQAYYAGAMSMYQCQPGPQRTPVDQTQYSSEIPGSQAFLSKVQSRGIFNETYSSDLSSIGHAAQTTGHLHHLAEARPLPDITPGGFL
The experiment can be described thus: In vitro assay 3: antagonism in mouse cell line (AHR transactivation, firefly luciferase reporter, kynurenic acid prestimulated). Format: cell-based. In outline:
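Mouse cells stably carrying a DRE-driven AHR-inducible firefly luciferase reporter were prestimulated with the endogenous agonist kynurenic acid before compound addition. Luciferase read by SteadyGlo; cells without kynurenic acid served as full-inhibition control, with normalization to positive and negative controls. Repeat tests reported as mean or median.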

The mark [3] stands for this setting: read-out: AHR Antagonism Mouse IC50, mouse Hepa 1c1c7 cells, 200 μM kynurenic acid, 20 hours.
[4] abbreviates: mouse Hepa 1c1c7 cells, 200 μM kynurenic acid, 20 hours, read-out: AHR Antagonism Mouse IC50.
The mark [5] stands for this setting: Hepa 1c1c7 cells, 200 μM kynurenic acid, 20 hours, firefly luciferase reporter, read-out: AHR Antagonism Mouse IC50.

For the molecule `O=C1NCCCC[C@H]1Nc1nc2ccccc2c2nc(-c3cccc(F)c3)nn12` [Example 11, (3R)-3-{[2-(3-fluorophenyl)[1,2,4]triazolo[1,5-c]quinazolin-5-yl]amino}azepan-2-one], at AHR [1], the IC50 was found to be 1.36e-09 M. The pIC50 on AHR [2] (setting [3]) was 9.24.
On AHR [1], `NC(=O)[C@@H](CO)Nc1nc2ccccc2c2nc(-c3cccc(OC(F)(F)F)c3)nn12` [Example 313, N^2-{2-[3-(trifluoromethoxy)phenyl][1,2,4]triazolo[1,5-c]quinazolin-5-yl}-D-serinamide] gave an IC50 of 1.06e-07 M. Also, the pIC50 at AHR [2] (setting [4]) is 7.00.
On AHR [1], `CS(=O)(=O)c1ccccc1-c1nc2c3ccccc3nc(N[C@@H]3CCCCNC3=O)n2n1` [Example 649, (3R)-3-({2-[2-(methanesulfonyl)phenyl][1,2,4]triazolo[1,5-c]quinazolin-5-yl}amino)azepan-2-one] yielded an IC50 of 3.8e-07 M. Moreover, on AHR [2] (setting [4]), the pIC50 is 7.56.
On the same counts, the results for `CC[C@@H](Nc1nc2ccccc2c2nc(-c3ccc(C#N)cc3)nn12)C(N)=O` [Example 386, (2R)-2-{[2-(4-cyanophenyl)[1,2,4]triazolo[1,5-c]quinazolin-5-yl]amino}butanamide] are 6.02e-10 M and 9.46.
The like results for `O=C1NCCCC[C@H]1Nc1nc2ccccc2c2nc(-c3ccccc3OC(F)(F)F)nn12` [Example 456, (3R)-3-({2-[2-(trifluoromethoxy)phenyl][1,2,4]triazolo[1,5-c]quinazolin-5-yl}amino)azepan-2-one] were, in that order, 2.98e-09 M and 8.45.
For the molecule `Cc1nn(C)cc1-c1nc2c3cccc(C(F)(F)F)c3nc(N[C@H]3CNCCNC3=O)n2n1` [Example 948], the IC50 on AHR [1] (firefly luciferase reporter) was determined as 2.08e-08 M. The pIC50 at AHR [2] (setting [5]) was 7.30.
On the same counts, the results for `CC(C)n1cc(-c2nc3c4cccc(C5CC5)c4nc(N[C@@H]4CCCCNC4=O)n3n2)cn1` [Example 820, (3R)-3-({7-cyclopropyl-2-[1-(propan-2-yl)-1H-pyrazol-4-yl][1,2,4]triazolo[1,5-c]quinazolin-5-yl}amino)azepan-2-one] are 6.33e-09 M and 7.15.
On to `COc1cccc(-c2nc3c4cc(F)ccc4nc(NC4CCNC4=O)n3n2)c1` (single isomer, unassigned) [Example 187, 3-{[9-fluoro-2-(3-methoxyphenyl)[1,2,4]triazolo[1,5-c]quinazolin-5-yl]amino}pyrrolidin-2-one], for which the IC50 on AHR [1] came to 6.04e-08 M. At AHR [2] (setting [4]), the pIC50 is 6.49.
On AHR [1], `COc1ccc(-c2nc3c4c(Cl)cccc4nc(N[C@@H]4CCCCNC4=O)n3n2)cc1` [Example 168, (3R)-3-{[10-chloro-2-(4-methoxyphenyl)[1,2,4]triazolo[1,5-c]quinazolin-5-yl]amino}azepan-2-one] came in with an IC50 of 9.09e-10 M. For the same molecule, the pIC50 at AHR [2] (setting [4]) is 8.66.
On AHR [1], `COc1cccc(-c2nc3c4c(C)cccc4nc(NC4CCNC4=O)n3n2)c1` (single isomer, unassigned) [Example 191, 3-{[2-(3-methoxyphenyl)-10-methyl[1,2,4]triazolo[1,5-c]quinazolin-5-yl]amino}pyrrolidin-2-one] yielded a half-maximal inhibitory concentration (IC50) of 1.96e-07 M. Moreover, the pIC50 at AHR [2] (setting [3]) was 5.96.
At AHR [1], `CCn1cc(-c2nc3c4cccc(C#N)c4nc(N[C@@H]4CCCCNC4=O)n3n2)c(C)n1` [Example 763, 2-(1-ethyl-3-methyl-1H-pyrazol-4-yl)-5-{[(3R)-2-oxoazepan-3-yl]amino}[1,2,4]triazolo[1,5-c]quinazoline-7-carbonitrile] returned an IC50 of 1.41e-09 M. The pIC50 at AHR [2] (setting [4]) was 8.40.
The like results for `COc1ccc(-c2nc3c4c(OC)cccc4nc(N[C@@H]4CCCCNC4=O)n3n2)cc1` [Example 245, (3R)-3-{[10-methoxy-2-(4-methoxyphenyl)[1,2,4]triazolo[1,5-c]quinazolin-5-yl]amino}azepan-2-one] were, in that order, 3.21e-08 M and 6.51.
On the same counts, the results for `O=C1NCCCC[C@H]1Nc1nc2c(Cl)cccc2c2nc(-c3cccc(F)c3)nn12` [Example 555, (3R)-3-{[7-chloro-2-(3-fluorophenyl)[1,2,4]triazolo[1,5-c]quianzolin-5-yl]amino}azepan-2-one] are 1.82e-08 M and 8.16.
The like results for `O=C1NCCCC[C@H]1Nc1nc2ccccc2c2nc(-c3cc(F)ccc3F)nn12` [Example 197, (3R)-3-{[2-(2,5-difluorophenyl)[1,2,4]triazolo[1,5-c]quinazolin-5-yl]amino}azepan-2-one] were, in that order, 4.23e-09 M and 8.74.
At AHR [1], `O=C1NCCCC[C@H]1Nc1nc2ccccc2c2nc(-c3cccc(OC(F)(F)F)c3)nn12` [Example 309, (3R)-3-({2-[3-(Trifluoromethoxy)phenyl][1,2,4]triazolo[1,5-c]quinazolin-5-yl}amino)azepan-2-one] had an IC50 of 2.47e-08 M. In addition, the negative logarithm of the IC50 (pIC50) at AHR [2] (setting [4]) is 8.71.
On the same counts, the results for `Cc1ccccc1-c1nc2c3ccccc3nc(NC3CCNC3=O)n2n1` (single isomer, unassigned) [Example 50, 3-{[2-(2-methylphenyl)[1,2,4]triazolo[1,5-c]quinazolin-5-yl]amino}pyrrolidin-2-one] are 1.06e-08 M and 7.69.
On the same counts, the results for `COc1ccc(-c2nc3c4c(C)cccc4nc(N[C@@H]4CCCCNC4=O)n3n2)cc1` [Example 243, (3R)-3-{[2-(4-methoxyphenyl)-10-methyl[1,2,4]triazolo[1,5-c]quinazolin-5-yl]amino}azepan-2-one] are 4.02e-09 M and 7.83.
On the same counts, the results for `O=C1NCCCCCC1Nc1nc2ccccc2c2nc(-c3cccc(OC(F)(F)F)c3)nn12` (stereo not drawn) [Example 447, 3-({2-[3-(trifluoromethoxy)phenyl][1,2,4]triazolo[1,5-c]quinazolin-5-yl}amino)azocan-2-one] are 2.27e-08 M and 7.95.
Take `COc1cccc(-c2nc3c4ccccc4nc(N[C@H](CO)C(=O)O)n3n2)c1` [Example 91, N-[2-(3-methoxyphenyl)[1,2,4]triazolo[1,5-c]quinazolin-5-yl]-D-serine]: on AHR [1], the IC50 is more than 2e-05 M. At AHR [2] (setting [4]), the negative logarithm of the IC50 (pIC50) is less than 4.70.
`CC[C@H](Nc1nc2ccccc2c2nc(-c3ccc(OC)cc3)nn12)C(N)=O` [Example 434, (2S)-2-{[2-(4-methoxyphenyl)[1,2,4]triazolo[1,5-c]quinazolin-5-yl]amino}butanamide] registered a concentration for half-maximal inhibition (IC50) on AHR [1] of 6.43e-08 M. On AHR [2] (setting [4]), the pIC50 was 7.12.
On the same counts, the results for `CC[C@@H](Nc1nc2ccccc2c2nc(-c3cnn(C)c3)nn12)C(N)=O` [Example 17, (2R)-2-{[2-(1-methyl-1H-pyrazol-4-yl)[1,2,4]triazolo[1,5-c]quinazolin-5-yl]amino}butanamide] are 7.44e-08 M and 7.56.
